Assays:
human recombinant PLK4 = human recombinant PLK4 (Homo sapiens (Human), UniProt O00444); assay: PLK4 Biochemical Assay (ADP-Glo); conditions: 0.5 nM PLK4, 8.0 µM ATP, 4.7 µM MBP, 6 hours at RT
In short: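 Recombinant human PLK4 (added at 1.0 nM) was preincubated 15 min at RT with compound in 50 mM HEPES pH 7.5, 10 mM MgCl2, 1 mM EGTA, 1 mM DTT, 0.01% Brij-35, 0.01% BSA. ADP formed was detected by ADP-Glo luminescence (40 min ATP depletion, 30 min detection). IC50 came from a four-parameter fit.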

CHP-134 cells = assay: CHP134 CellTiter-Glo (CTG) Assay; assay type: cell-based; conditions: 5 days, viable cells by CellTiter-Glo
In short: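 CHP-134 cells seeded at 200 cells/well for 16 h, then given nine 1:3 serial dilutions in quadruplicate at 37° C, 5% CO2. Viable cells measured by CellTiter-Glo luminescence after 5 days; IC50 calculated from curves.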

[1] = target: human recombinant Aurora A (Homo sapiens (Human), UniProt O14965); assay: Aurora A Kinase Biochemical Assay (ADP-Glo); conditions: ratio of Aurora A IC50 to PLK4 IC50 (selectivity)
[2] = target: human recombinant Aurora B (Homo sapiens (Human), UniProt Q96GD4); assay: Aurora B Kinase Biochemical Assay (ADP-Glo); conditions: ratio of Aurora B IC50 to PLK4 IC50 (selectivity)
In short: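 Recombinant human Aurora B (20 nM in pH 7.5 HEPES buffer with MgCl2, EGTA, DTT, Brij-35, BSA) preincubated with compound 15 min at RT. ADP formed quantified by ADP-Glo luminescence after ATP depletion (40 min) and detection (30 min). IC50 from four-parameter non-linear regression.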

Sequence of human recombinant Aurora A (O14965 whole entry): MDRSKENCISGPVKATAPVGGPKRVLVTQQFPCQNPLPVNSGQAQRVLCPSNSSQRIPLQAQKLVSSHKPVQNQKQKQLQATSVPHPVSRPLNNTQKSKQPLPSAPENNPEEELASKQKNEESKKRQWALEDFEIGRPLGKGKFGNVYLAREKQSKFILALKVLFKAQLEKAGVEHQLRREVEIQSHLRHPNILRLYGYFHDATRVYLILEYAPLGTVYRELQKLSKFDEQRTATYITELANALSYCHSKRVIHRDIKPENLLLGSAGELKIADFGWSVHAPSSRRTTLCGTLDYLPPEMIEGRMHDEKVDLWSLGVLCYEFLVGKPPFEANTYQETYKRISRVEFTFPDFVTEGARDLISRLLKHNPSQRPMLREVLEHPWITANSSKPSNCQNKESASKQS
Sequence of human recombinant Aurora B (Q96GD4 whole entry): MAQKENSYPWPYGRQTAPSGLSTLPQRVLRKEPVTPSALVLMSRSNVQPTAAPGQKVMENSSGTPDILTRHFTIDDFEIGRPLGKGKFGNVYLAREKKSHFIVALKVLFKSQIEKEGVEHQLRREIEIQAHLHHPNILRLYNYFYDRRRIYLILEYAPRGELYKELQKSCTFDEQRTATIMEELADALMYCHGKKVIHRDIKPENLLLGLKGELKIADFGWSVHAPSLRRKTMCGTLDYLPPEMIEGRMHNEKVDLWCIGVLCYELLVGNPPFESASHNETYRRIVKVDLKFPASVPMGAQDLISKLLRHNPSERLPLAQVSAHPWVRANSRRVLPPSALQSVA
Sequence of human recombinant PLK4 (O00444 whole entry): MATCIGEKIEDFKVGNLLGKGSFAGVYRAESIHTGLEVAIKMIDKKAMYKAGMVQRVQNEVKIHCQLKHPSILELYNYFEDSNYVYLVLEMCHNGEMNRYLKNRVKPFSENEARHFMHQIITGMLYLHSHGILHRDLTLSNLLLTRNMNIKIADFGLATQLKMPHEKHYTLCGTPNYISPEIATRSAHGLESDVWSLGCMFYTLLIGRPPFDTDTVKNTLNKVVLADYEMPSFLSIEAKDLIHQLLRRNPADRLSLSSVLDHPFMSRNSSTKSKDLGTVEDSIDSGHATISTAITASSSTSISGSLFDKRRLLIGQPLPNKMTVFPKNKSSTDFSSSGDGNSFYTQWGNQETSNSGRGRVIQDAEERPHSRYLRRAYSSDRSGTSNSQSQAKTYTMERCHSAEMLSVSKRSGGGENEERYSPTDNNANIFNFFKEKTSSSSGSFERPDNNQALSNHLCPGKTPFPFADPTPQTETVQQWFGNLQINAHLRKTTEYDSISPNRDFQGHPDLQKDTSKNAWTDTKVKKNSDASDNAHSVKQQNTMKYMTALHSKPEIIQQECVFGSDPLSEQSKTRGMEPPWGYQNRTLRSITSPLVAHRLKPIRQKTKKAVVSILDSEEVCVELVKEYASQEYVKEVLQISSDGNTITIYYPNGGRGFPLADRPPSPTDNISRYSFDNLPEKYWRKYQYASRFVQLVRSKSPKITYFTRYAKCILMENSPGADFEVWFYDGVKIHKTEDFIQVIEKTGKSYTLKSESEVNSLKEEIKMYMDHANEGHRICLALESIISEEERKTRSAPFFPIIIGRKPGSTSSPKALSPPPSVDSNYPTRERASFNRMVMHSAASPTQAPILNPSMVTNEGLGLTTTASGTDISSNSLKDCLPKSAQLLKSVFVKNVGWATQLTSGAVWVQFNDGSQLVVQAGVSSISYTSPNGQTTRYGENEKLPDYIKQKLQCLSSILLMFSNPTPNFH

Row | Structure (SMILES) | IC50 (human recombinant PLK4) [nM] | IC50 (CHP-134 cells; Homo sapiens, CHP-134, 120 h) [nM] | [Aurora A IC50 (nM)]/[PLK4 IC50 (nM)] [1] | [Aurora B IC50 (nM)]/[PLK4 IC50 (nM)] [2] | IC50 (CHP-134 cells) [nM]
1 | COc1ccc2c(c1)[C@]1(C[C@H]1c1ccc3c(Nc4nc(N5CC(F)(F)C5)ncc4OC)n[nH]c3c1)C(=O)N2 [Example 173, (1R,2S)-2-(3-([2-(3,3-difluoroazetidin-1-yl)-5-methoxypyrimidin-4-yl]amino}-1H-indazol-6-yl)-5′-methoxyspiro[cyclopropane-1,3′-indol]-2′(1 ‘H)-one] | 2.67 | 332 | 301.0878 | 314.9287 | 
2 | COc1ccc2c(c1)[C@]1(C[C@H]1c1ccc3c(Nc4ncnc(N5CC(O)C5)c4Cl)n[nH]c3c1)C(=O)N2C [Example 107, (1R,2S)-2-(3-{[5-chloro-6-(3-hydroxyazetidin-1-yl)pyrimidin-4-yl]amino}-1H-indazol-6-yl)-5′-methoxy-1′-methylspiro[cyclopropane-1,3′-indol]-2′(1′H)-one] | 5.7 | 730 | 1455.295 | 174.4215 | 
3 | COc1ccc2c(c1)[C@]1(C[C@H]1c1ccc3c(Nc4ccc(C(=O)NCC5CC5)nc4OC)n[nH]c3c1)C(=O)N2 [Example 230, N-(cyclopropylmethyl)-6-methoxy-5-({6-[(1R,2S)-5′-methoxy-2′-oxo-1′,2′-dihydrospiro[cyclopropane-1,3′-indol]-2-yl]-1H-indazol-3-yl}amino)pyridine-2-carboxamide] | 2.43 | 395 | 12432.2103 | 213.4346 | 
4 | COc1ccc2c(c1)[C@]1(C[C@H]1c1ccc3c(Nc4nc(C)ncc4Cl)n[nH]c3c1)C(=O)N2 [Example 98, (1R,2S)-2-{3-[(5-chloro-2-methylpyrimidin-4-yl)amino]-1H-indazol-6-yl)-5′-methoxyspiro[cyclopropane-1,3′-indol]-2′(1′H)-one] | 7.55 | 65.8 | 787.0003 | 305.5335 | 
5 | CCN1C(=O)[C@@]2(C[C@H]2c2ccc3c(Nc4ncnc(N5CC(O)C5)c4Cl)n[nH]c3c2)c2cc(OC)ccc21 [Example 108, (1R,2S)-2-(3-{[5-chloro-6-(3-hydroxyazetidin-1-yl)pyrimidin-4-yl]amino}-1H-indazol-6-yl)-1′-ethyl-5′-methoxyspiro[cyclopropane-1,3′-indol]-2′(1′H)-one] | 4.37 | 1090 | 3889.143 | 230.6459 | 
6 | COc1ccc2c(c1)[C@]1(C[C@H]1c1ccc3c(Nc4ccc(C(=O)N(C5CC5)C5CC5)nc4OC)n[nH]c3c1)C(=O)N2 [Example 243, N,N-dicyclopropyl-6-methoxy-5-({6-[(1R,2S)-5′-methoxy-2′-oxo-1′,2′-dihydrospiro[cyclopropane-1,3′-indol]-2-yl]-1H-indazol-3-yl}amino)pyridine-2-carboxamide] | 1.15 | 188 | 479.1122 | 164.5778 | 
7 | CCOc1nc(S(=O)(=O)N(C)C)ccc1Nc1n[nH]c2cc([C@@H]3C[C@@]34C(=O)Nc3ccc(OC)cc34)ccc12 [Example 223, 6-ethoxy-5-({6-[(1R,2S)-5′-methoxy-2′-oxo-1′,2′-dihydrospiro[cyclopropane-1,3′-indol]-2-yl]-1H-indazol-3-yl}amino)-N,N-dimethylpyridine-2-sulfonamide] | 2.3 | 163 | 1004.7743 | 445.3125 | 
8 | COc1ccc2c(c1)[C@]1(C[C@H]1c1ccc3c(Nc4nc(Cl)ncc4OC)n[nH]c3c1)C(=O)N2 [Example 10, (1R,2S)-2-{3-[(2-Chloro-5-methoxypyrimidin-4-yl)amino]-1H-indazol-6-yl}-5′-methoxyspiro[cyclopropane-1,3′-indol]-2′(1′H)-one] | 1.59 | 438 | 954.6314 | 103.0876 | 
9 | COc1ccc2c(c1)[C@]1(C[C@H]1c1ccc3c(Nc4ncc(S(=O)(=O)C(C)C)cc4OC)n[nH]c3c1)C(=O)N2 [Example 248, (1R,2S)-5′-Methoxy-2-(3-{[3-methoxy-5-(propane-2-sulfonyl)pyridin-2-yl]amino}-1H-indazol-6-yl)spiro[cyclopropane-1,3′-indol]-2′(1′H)-one] | 1.24 | 120 | 683.4543 | 206.5375 | 
10 | COc1ccc2c(c1)[C@]1(C[C@H]1c1ccc3c(Nc4nc(C(C)C)ncc4Cl)n[nH]c3c1)C(=O)N2 [Example 117, (1R,2S)-2-(3-{[5-chloro-2-(propan-2-yl)pyrimidin-4-yl]amino}-1H-indazol-6-yl)-5′-methoxyspiro[cyclopropane-1,3′-indol]-2′(1′H)-one] | 2.32 | 109 | 1388.1947 | 906.5058 | 
11 | COc1ccc2c(c1)[C@]1(C[C@H]1c1ccc3c(Nc4nc(C5CC5)cnc4OC)n[nH]c3c1)C(=O)N2.O=C(O)C(F)(F)F [Example 80, (1R,2S)-2-{3-[(6-cyclopropyl-3-methorypyrazin-2-yl)amino]-1H-indazol-yl}-5′-metboxyspiro[cyclopropane-1,3′-indol]-2′(1′H)-one] | 2.37 | 294 | 346.5116 | 54.12 | 
12 | COc1ccc2c(c1)[C@]1(C[C@H]1c1ccc3c(Nc4ccc([S+](C)[O-])nc4OC)n[nH]c3c1)C(=O)N2 (single isomer, unassigned) [Example 239] | 1.69 |  | 1429.5857 | 466.8047 | 949
13 | COc1ccc2c(c1)[C@]1(C[C@H]1c1ccc3c(Nc4ncc(S(=O)(=O)NC5(C)COC5)cc4OC)n[nH]c3c1)C(=O)N2 [Example 269, 5-methoxy-6-({6-[(1R,2S)-5′-methoxy-2′-oxo-1′,2′-dihydrospiro[cyclopropane-1,3′-indol]-2-yl]-1H-indazol-3-yl}amino)-N-(3-methyloxetan-3-yl)pyridine-3-sulfonamide] | 0.89 | 1350 | 191.7977 | 138.7640 | 
14 | CCOc1cnc(C)nc1Nc1n[nH]c2cc([C@@H]3C[C@@]34C(=O)Nc3ccc(OC)cc34)ccc12 [Example 134, (1R,2S)-2-{3-[(5-ethoxy-2-methylpyrimidin-4-yl)amino]-1-indazol-6-yl}-5′-methoxyspiro[cyclopropane-1,3′-indol]-2′(1′H)-one] | 1.79 | 782 | 8849.1620 | 969.2737 | 
15 | COc1cnc(C)nc1Nc1n[nH]c2cc([C@@H]3C[C@@]34C(=O)Nc3ccc(C)cc34)ccc12 [Example 126, (1R,2S)-2-{3-[(5-methoxy-2-methylpyrimidin-4-yl)amino]-1H-indazol-6-yl}-5′-methylspiro[cyclopropane-1,3′-indol]-2′(1′H)-one] | 9.01 | 459 | 66.2192 | 92.0568 | 
16 | COc1ccc2c(c1)[C@]1(C[C@H]1c1ccc3c(Nc4ncnc(N5CC(OC)C5)c4Cl)n[nH]c3c1)C(=O)N2 [Example 47, (1R,2S)-2-(3-{[5-chloro-6-(3-methoxyazetidin-1-yl)pyrimidin-4-yl]amino}-1H-indazol-6-yl)-5′-methoxyspiro[cyclopropane-1,3′-indol]-2′(1′H)-one] | 1.3 | 610 | 1879.416 | 104.3011 | 
17 | COc1ccc2c(c1)[C@]1(C[C@H]1c1ccc3c(Nc4ncc(S(C)(=O)=O)cc4OC)n[nH]c3c1)C(=O)N2 [Example 193, (1R,2S)-2-(3-{[5-(methanesulfonyl)-3-methoxypyridin-2-yl]amino}-1H-indazol-6-yl)-5′-methoxyspiro[cyclopropane-1,3′-indol]-2′(1′H)-one] | 1.13 | 390 | 1463.8448 | 138.8889 | 
18 | CNC(=O)c1ccc(Nc2n[nH]c3cc([C@@H]4C[C@@]45C(=O)Nc4ccc(OC)cc45)ccc23)c(OC)n1 [Example 191, 6-methoxy-5-({6-[(1R,2S)-5′-methoxy-2′-oxo-1′,2′-dihydrospiro[cyclopropane-1,3′-indol]-2-yl]-1H-indazol-3-yl}amino)-N-methylpyridine-2-carboxamide] | 2.27 | 494 | 2416.5931 | 84.9956 | 
19 | COc1ccc2c(c1)[C@]1(C[C@H]1c1ccc3c(Nc4ccc(P(C)(C)=O)nc4OC)n[nH]c3c1)C(=O)N2 [Example 205, (1R,2S)-2-(3-{[6-(dimethylphosphoryl)-2-methoxypyridin-3-yl]amino}-1H-indazol-6-yl)-5′-methoxyspiro[cyclopropane-1,3′-indol]-2′(1′H)-one] | 1.64 | 3440 | 737.5152 | 235.7491 | 
